{
  "source": "patent US20070178099A1",
  "about": "“Suppression of TNFalpha and IL-12 in therapy” (The Kennedy Institute of Rheumatology, priority 1996, published 2007)",
  "origin": "cited, not measured here",
  "key": {"Crohn's disease": {"system": "Crohn's disease", "details": "open-label trial"}},
  "note": "Where two headings read alike, the source gives them in different places.",
  "data": [
    {"substance": "cA2: chimeric anti-TNF antibody: variable region of mouse anti-human TNF IgG1 antibody A2 and constant regions of human IgG1, kappa immunoglobulin", "values": [
      {"measurement": "clinical effect in Crohn's disease", "setting": "Crohn's disease", "value": "Beneficial effects"},
      {"measurement": "clinical effect in rheumatoid arthritis", "setting": "rheumatoid arthritis; open-label trials", "value": "suppression of inflammation and with successful retreatment after relapse"},
      {"measurement": "clinical effect in rheumatoid arthritis", "setting": "rheumatoid arthritis; randomized, double-blind, placebo-controlled trial", "value": "suppression of inflammation"}
    ]}
  ]
}
